Patent publication US20070042947A1, “Agents for preventing and/or treating uppper digestive tract disorders” (Takeda Pharmaceutical Company Limited, priority 2003, published 2007)

What was measured:
pylorus ligated rats [1] = test: Amount of gastrin secretion (blood gastrin level, RIA) in pylorus ligated rats; format: in vivo, rat; details: 2 mg/kg (2000 μg/kg group) intraperitoneally; blood 3 hours after pylorus ligature; vs saline group, 8 rats
Description: After Wistar male rats (340-360 g) were fasted for 16 hours with water given ad libitum as in EXAMPLE 2 above, the animal was exposed at laparotomy under ether anesthesia and submitted to the pylorus ligature assay to close the abdomen. After hNPW23 was dissolved in saline (2 mg/ml), the solution was intraperitoneally injected (2 mg/kg). The control group was given saline. Test was performed with 8 rats in each group. Three hours after the pylorus ligature, the rat's abdomen was opened under anesthesia with Nembutal (40 mg/kg) and blood was collected through the abdominal aorta. The blood was placed in a blood tube of 7 ml (Terumo, containing EDTA), centrifuged (3000 rpm×10 min.) and stored at −40° C in lyophilized state until assay. Gastrin level in blood was assayed with Gastrin RIA KIT II (ABBOTT JAPAN). The F-assay was conducted on mean measurement values.

pylorus ligated rats [2] = test: Gastric fluid volume, pH, gastric acidity and acid output in pylorus ligated rats; format: in vivo, rat; details: 2 mg/kg intraperitoneally; 3 hours after pylorus ligature; mean ± SE, 8 rats
Description: After Wistar male rats (340-360 g) were fasted for 16 hours with water given ad libitum, the animal was exposed at laparotomy under ether anesthesia and submitted to the pylorus ligature assay to close the abdomen. After hNPW23 was dissolved in saline (2 mg/ml), the solution was intraperitoneally injected (2 mg/kg). The control group was given saline. Test was performed with 8 rats in each group. Three hours after the pylorus ligature, the rat's abdomen was opened under anesthesia with Nembutal (40 mg/kg, Dainippon Pharmaceutical). After ligation of the cardia, the stomach was removed. Gastric contents were collected and centrifuged (2500 rpm×10 min.). Using the supernatant, gastric fluid volume (ml), pH intragastric pH, gastric acidity (mEq/l) and total acid output (μEq/kg/h) were measured.
To 1 ml of gastric juice, 30 μl of BTB (Wako Pure Chemical) solution was added and […] NaOH solution was dropwise added to the mixture. The consumed amount of NaOH required to reach the equivalent point (pH 7.0) was measured to calculate the gastric acidity and total acid output.
The pH of gastric juice was measured using Twin pH meter B-212 (Horiba, Ltd.).
The respective measurements values were calculated according to the equation below and T-assay was conducted.
Gastric acidity (mEq/l)=0.2N NaOH×consumed amount (μl)/gastric juice (1000 μl)
Total acid output (μEq/kg/h)=gastric acidity x gastric fluid volume/weight/time

Wistar male rats = test: Gastric acid secretion in anesthetized rat by intravenous injection of hNPW23 (stomach perfusion, NaOH titration); format: in vivo; details: 80 μM in saline, 1 ml/h for 30 minutes through the femoral vein; mean±SE, 8 rats; P 0.01 or less vs control
Description: After Wistar male rats (Nippon Charles River, weighing 320-360 g) were fasted for 16 hours with water given ad libitum, the animal was injected intraperitoneally with ethyl carbamate (Wako Pure Chemical) (1.0 g/ml/kg) and firmly secured to the operating table under anesthesia to perform laparotomy. Stomach catheter (Medtop X2-50, 3.5 mm in outer diameter and […] in inner diameter) was inserted into the stomach (2 cm) through an incision in the duodenum. After ligature at the pyloric canal, the right femoral vein was isolated to perform venous cannulation. The stomach was irrigated with distilled water (Otsuka Pharmaceutical Co., Ltd.) warmed at 37° C. and allowed to stand for about an hour. hNPW23 was dissolved in saline (Otsuka Pharmaceutical Co., Ltd.) to become 80 μM. The control group was given saline. […] Gastric acid output was determined as follows. […] After 30 μl of Bromthymol Blue indicator solution (BTB, Wako Pure Chemical) was added to each gastric juice collected, the mixture was titrated with 0.1N NaOH solution and the consumed amount of NaOH required to reach the equivalent point (the amount consumed) was determined to calculate the gastric acid output. The gastric acid output before administration of hNPW23 was measured and T-assay was conducted on a percentage (%) of changes in gastric acid outputs before and after administration. […]

What does the source list for “hNPW23: human GPR8 ligand peptide (hNPW23), amino acid sequence SEQ ID NO: 1; Neuropeptide W (WYKHVASPRYHTVGRAAGLLMGL; listed as Homo sapiens)”?
gastrin level in blood (pylorus ligated rats [1]): increased significantly; Gastric acidity (pylorus ligated rats [2]): 96.0 ± 4.2 mEq/l; Gastric fluid volume (pylorus ligated rats [2]): 7.9 ± 1.2 mL; Intragastric pH (pylorus ligated rats [2]): 0.83 ± 0.03; Total acid output (pylorus ligated rats [2]): 747.4 ± 121.5 μEq/kg/h; changes in gastric acid outputs (gastric acid output after administration / before administration x 100) (Wistar male rats): 145.6±8.5%
